Source: patent US11434242B2, “Dopamine-b-hydroxylase inhibitors” (BIAL-PORTELA & Cª, S.A., priority 2017, dated 2022)
Structures can show the parent of a compound that is named as a salt.

Target: T1, Dopamine beta hydroxylase (Homo sapiens, UniProt P09172)
T1 construct: 125 μl of plasma; tissue Instituto Português do Sangue Transplantação; host or cells: human plasma from healthy donors
T1 sequence (P09172 40-617 limits assumed): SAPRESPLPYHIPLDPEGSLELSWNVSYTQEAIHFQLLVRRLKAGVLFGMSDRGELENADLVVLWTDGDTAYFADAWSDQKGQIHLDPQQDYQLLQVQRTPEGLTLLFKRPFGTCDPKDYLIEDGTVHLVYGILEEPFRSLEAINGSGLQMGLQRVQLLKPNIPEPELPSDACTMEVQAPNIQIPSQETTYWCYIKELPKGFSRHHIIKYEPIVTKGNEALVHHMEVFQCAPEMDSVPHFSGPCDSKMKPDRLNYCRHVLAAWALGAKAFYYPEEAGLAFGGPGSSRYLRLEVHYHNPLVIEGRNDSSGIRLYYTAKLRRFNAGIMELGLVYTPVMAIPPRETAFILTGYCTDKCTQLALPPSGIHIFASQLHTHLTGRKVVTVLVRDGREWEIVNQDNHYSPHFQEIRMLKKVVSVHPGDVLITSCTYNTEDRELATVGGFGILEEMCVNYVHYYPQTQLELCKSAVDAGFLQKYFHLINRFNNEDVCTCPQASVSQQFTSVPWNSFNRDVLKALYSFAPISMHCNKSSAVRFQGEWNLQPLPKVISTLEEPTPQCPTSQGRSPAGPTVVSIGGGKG
Experiment: Dopamine beta hydroxylase activity in human plasma
Type: biochemical
Conditions: for Plasma (0.01 μM), activity in % of control: inhibitor 0.01 μM; for Plasma (0.1 μM), activity in % of control: inhibitor 0.1 μM
Description: Furthermore, the ability of a compound to inhibit DβH activity may be assessed in human plasma using the following assay. […]. Dopamine beta hydroxylase activity in human plasma was measured by the method of Nagatsu and Udenfriend (Nagatsu, T. and Udenfriend, S. “Photometric assay of dopamine-μ-hydroxylase activity in human blood.” Clin. Chem. 18(9) 980-983, 1972) with minor modifications. Catalase, N-ethylmaleimide, tyramine, disodium fumarate, pargyline, sodium acetate, ascorbic acid, copper sulfate and octopamine were obtained from Sigma Chemical Co., St. Louis, Mo. 63178. Human plasma samples were obtained from healthy donors (Instituto Português do Sangue Transplantação, Centro Sangue Transplantação, Porto, Portugal). From date of collection, plasma was stored at −80° C. until use. Test compounds were initially prepared in dimethyl sulfoxide at a concentration of 10 mM and diluted in dimethyl sulfoxide to the required concentrations. Test compounds were further diluted in ultrapure water to a concentration 20-fold to that of the final concentration to be tested. Final concentrations of test compounds were 10, 100 and 1000 nM. The various reagents used to make up the incubation buffer were premixed and consisted of the following components: sodium acetate buffer (1 M, pH 5.0, 18 ml), sodium fumarate (0.2 M, 4.5 ml), ascorbic acid (0.2 M, 4.5 ml, freshly prepared), pargyline (20 mM, freshly prepared, 4.5 ml), N-ethylmaleimide (0.2 M, 4.5 ml), catalase (10 000 U/ml, 9 ml), copper sulfate (20 μM, 4.5 ml) and 4.5 ultrapure water. The standard incubation mixture (total volume, 950 μl) contained: 50 μL of compound or vehicle (dimethyl sulfoxide 2%); 700 μL of incubation buffer; 125 μl of plasma (or saline for blank reaction or standard curve); 75 μl of saline. The reaction mixture was placed in water bath, shaking at 37° C. and pre-incubated for 10 minutes. Tyramine (0.5 M) was added and incubation proceeded for 45 minutes. The reaction contents were exposed to air. A sample of enzyme preparation (with 125 μl of plasma) that had been added perchloric acid 2 M at the end of the pre-incubation period was used as blank. A blank for each of the tested compounds was used. For octopamine standard curve, perchloric acid 2 M was replaced by increasing concentrations of octopamine prepared in perchloric acid 2 M (0.5, 1, 2.5, 5, 7.5, 10, 15, 20 μg/ml, final concentration). The incubation was stopped by adding 200 μl of 2 M molar perchloric acid, and the mixture was centrifuged at 9000 g for 5 min. The supernatant fluid (800 μL) was transferred to a column (SPE cartridge ISOLUTE SCX-3, 100 mg) and centrifuged at 150 g for 2 min. The column was washed two more times with 0.5 ml of ultrapure water by centrifuging at 150 g for 2 min. The adsorbed octopamine was eluted twice with 0.3 ml of 4 M ammonium hydroxide by centrifuging at 150 g for 2 min. Octopamine in the eluate was then converted to p-hydroxybenzaldehyde by adding 200 μl of sodium periodate (2%) and incubating for 6 min. Excess periodate was than reduced by adding 200 μl of sodium metabisulfite (10%). Absorbance was measured at […] in a 96-well plate by use of a SpectraMAX plus 384 (Molecular Devices) with software SOFTmax® PRO Software 5.3 spectrophotometer. Absorbance was linear with octopamine concentration from 0.5 to 20 μg/ml. Dopamine beta hydroxylase activity is determined as nmol of octopamine formed/ml of plasma/hour and effect of compounds is presented as % control.
Results are reported in the table below as activity in % of control at the inhibitor concentration tested.

Row | Structure (SMILES) | Plasma (0.01 μM), activity in % of control | Plasma (0.1 μM), activity in % of control
1 | Cn1c(CC(=O)N[C@@H]2CCOC2)c2n(c1=S)C[C@@H](c1c(F)ccc(F)c1F)C2 [Example 244, 2-((R)-2-methyl-3-thioxo-6-(2,3,6-trifluorophenyl)-2,5,6,7-tetrahydro-3H-pyrrolo[1,2-c]imidazol-1-yl)-N—((R)-tetrahydrofuran-3-yl)acetamide] | 83.6 % of control | 32.9 % of control
2 | Cn1c(CC(=O)NCC2CCOCC2)c2n(c1=S)C[C@H](c1cc(F)cc(F)c1)C2 [Example 428, (S)-2-(6-(3,5-difluorophenyl)-2-methyl-3-thioxo-2,5,6,7-tetrahydro-3H-pyrrolo[1,2-c]imidazol-1-yl)-N-((tetrahydro-2H-pyran-4-yl)methyl)acetamide] | 68.2 % of control | 32.3 % of control
3 | CN(C(=O)Cc1[nH]c(=S)n2c1C[C@H](c1c(F)ccc(F)c1F)C2)C1CCOC1 (stereo partly drawn) [Example 364, N-methyl-N-(tetrahydrofuran-3-yl)-2-((R)-3-thioxo-6-(2,3,6-trifluorophenyl)-2,5,6,7-tetrahydro-3H-pyrrolo[1,2-c]imidazol-1-yl)acetamide] | 97.0 % of control | 54.7 % of control
4 | CN1C[C@@H](NC(=O)Cc2c3n(c(=S)n2C)C[C@H](c2c(F)ccc(Br)c2F)C3)CC1=O [Example 449, 2-((S)-6-(3-bromo-2,6-difluorophenyl)-2-methyl-3-thioxo-2,5,6,7-tetrahydro-3H-pyrrolo[1,2-c]imidazol-1-yl)-N—((S)-1-methyl-5-oxopyrrolidin-3-yl)acetamide] | 27.8 % of control | 2.3 % of control
5 | Cn1c(CCC(N)=O)c2n(c1=S)C[C@@H](c1c(F)cccc1F)C2 [Example 263, (R)-3-(6-(2,6-difluorophenyl)-2-methyl-3-thioxo-2,5,6,7-tetrahydro-3H-pyrrolo[1,2-c]imidazol-1-yl)propanamide] | 103.3 % of control | 87.1 % of control
6 | O=C(Cc1[nH]c(=S)n2c1[C@@H]1C[C@]1(c1cc(Br)ccc1F)C2)NCC(F)(F)F [Example 152, 2-((5aS,6aR)-5a-(5-bromo-2-fluorophenyl)-3-thioxo-2,3,5,5a,6,6a-hexahydrocyclopropa[3,4]pyrrolo[1,2-c]imidazol-1-yl)-N-(2,2,2-trifluoroethyl)acetamide] | 72.1 % of control | 17.8 % of control
7 | CCOC(=O)C(Cc1[nH]c(=S)n2c1C[C@H](c1c(F)c(F)cc(F)c1F)C2)C(=O)OCC [Example 200, (R)-diethyl 2-((6-(2,3,5,6-tetrafluorophenyl)-3-thioxo-3,5,6,7-tetrahydro-2H-pyrrolo[1,2-c]imidazol-1-yl)methyl)malonate] | 85.2 % of control | 66.4 % of control
8 | O=C(Cc1[nH]c(=S)n2c1C[C@H](c1c(F)ccc(F)c1F)C2)N[C@@H]1CCOC1 [Example 368, 2-((R)-6-(2,3,6-trifluorophenyl)-3-thioxo-2,5,6,7-tetrahydro-3H-pyrrolo[1,2-c]imidazol-1-yl)-N—((R)-tetrahydrofuran-3-yl)acetamide] | 104.4 % of control | 63.1 % of control
9 | CC(C)NC(=O)Cc1c2n(c(=S)n1C)C[C@H](c1c(F)ccc(Cl)c1F)C2 [Example 236, (S)-2-(6-(3-chloro-2,6-difluorophenyl)-2-methyl-3-thioxo-2,5,6,7-tetrahydro-3H-pyrrolo[1,2-c]imidazol-1-yl)-N-isopropylacetamide] | 104.2 % of control | 51.0 % of control
10 | Cn1c(CCC(=O)N2CCCC2)c2n(c1=S)C[C@@H](c1c(F)cccc1F)C2 [Example 264, (R)-3-(6-(2,6-difluorophenyl)-2-methyl-3-thioxo-2,5,6,7-tetrahydro-3H-pyrrolo[1,2-c]imidazol-1-yl)-1-(pyrrolidin-1-yl)propan-1-one] | 98.4 % of control | 54.2 % of control
11 | Cn1c(CC(=O)N2CCOCC2)c2n(c1=S)C[C@@H](c1c(F)cccc1F)C2 [Example 445, (R)-2-(6-(2,6-difluorophenyl)-2-methyl-3-thioxo-2,5,6,7-tetrahydro-3H-pyrrolo[1,2-c]imidazol-1-yl)-1-morpholinoethan-1-one] | 95.1 % of control | 73.7 % of control
12 | Cn1c(CCO)c2n(c1=S)C[C@H](c1c(F)ccc(Br)c1F)C2 [Example 456, (S)-6-(3-bromo-2,6-difluorophenyl)-1-(2-hydroxyethyl)-2-methyl-2,5,6,7-tetrahydro-3H-pyrrolo[1,2-c]imidazole-3-thione] | 86.8 % of control | 20.2 % of control
13 | O=C(CCc1[nH]c(=S)n2c1C[C@H](c1c(F)c(F)cc(F)c1F)C2)N1CCCCC1 [Example 207, (R)-1-(piperidin-1-yl)-3-(6-(2,3,5,6-tetrafluorophenyl)-3-thioxo-2,5,6,7-tetrahydro-3H-pyrrolo[1,2-c]imidazol-1-yl)propan-1-one] | 76.6 % of control | 30.2 % of control
14 | O=C(Cc1[nH]c(=S)n2c1[C@@H]1C[C@]1(c1cc(Cl)ccc1F)C2)Nc1cccnc1 [Example 171, 2-((5aS,6aR)-5a-(5-chloro-2-fluorophenyl)-3-thioxo-2,3,5,5a,6,6a-hexahydrocyclopropa[3,4]pyrrolo[1,2-c]imidazol-1-yl)-N-(pyridin-3-yl)acetamide] | 40.4 % of control | 3.7 % of control
15 | Fc1cc(F)c(F)c([C@H]2Cc3c(CN4CCOCC4)[nH]c(=S)n3C2)c1F [Example 209, (R)-1-(morpholinomethyl)-6-(2,3,5,6-tetrafluorophenyl)-6,7-dihydro-2H-pyrrolo[1,2-c]imidazole-3(5H)-thione Hydrochloride] | 87.6 % of control | 60.3 % of control
